From US9050295B2, “Composition for treatment of tuberculosis” (ETH Zurich, priority 2007, dated 2015)
Entries after “also recorded” stand apart in the source; their conditions may differ.

Tests used:
[1] = biological target: T1, EthR-VP16 binding to OethR (Mycobacterium bovis, UniProt Q7TVI1); assay: cell-based; format: cell-based, M. tuberculosis
[2] = biological target: T1, EthR-VP16 binding to OethR; format: in vivo; conditions: mice, 625 μl/kg injected 1 and 25 h post implantation, serum at 48 h
EthR-OethR interaction = EthR-OethR interaction (Mycobacterium bovis, UniProt Q7TVI1); format: binding, M. tuberculosis; conditions: ELISA, E. coli cell lysate, OD450
EthR-OethR interaction, sequence (Q7TVI1 whole entry, looked up): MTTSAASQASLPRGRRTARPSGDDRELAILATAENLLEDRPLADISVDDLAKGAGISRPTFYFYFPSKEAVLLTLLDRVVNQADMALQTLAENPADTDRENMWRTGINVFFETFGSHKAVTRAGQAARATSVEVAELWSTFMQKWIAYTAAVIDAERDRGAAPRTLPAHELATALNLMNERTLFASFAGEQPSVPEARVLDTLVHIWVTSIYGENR

E-ETR interaction = assay: Specificity control ELISA, macrolide-dependent repressor E and operator ETR; format: binding; conditions: ELISA set-up as FIG. 2B
Procedure: To exclude that 2-phenylethyl butyrate indiscriminatingly modulates protein-DNA interactions the macrolide-dependent repressor-operator configuration is challenged with this compound in an identical ELISA set-up as shown in FIG. 2B. The E-ETR interaction is insensitive to 2-phenylethyl butyrate (PEB) and can exclusively be abolished in the presence of erythromycin (EM, 5 μg/ml).
The repressor protein E binds to its cognate operator sequence ETR and is released thereof in the presence of macrolide antibiotics like erythromycin as described in U.S. Pat. No. 7,273,723.
EthR-his6 is produced as previously described for E-his6 [Weber, C. C. et al., supra] with the exception that the biotinylated operator sequence (OethR) is incubated with a 100 μl streptavidin agarose bead suspension (Novagen, Madison, Wis., USA, cat. no. 69203) for 1 h at 4° C. while rotating.

M. bovis BCG = format: cell-based
M. tuberculosis H37Rv = format: cell-based
[3] = mouse, in vivo, ip
HEK-293 = HEK-293 with constitutive SEAP expression, 0-3.2 mM, 48 h
[4] = HEK-293 with EthR-based gene circuit, 0-3.2 mM, 48 h

T1 sequence (Q7TVI1 whole entry, looked up): as above

CCCC(=O)OCCc1ccccc1 [2-Phenylethyl butyrate]
IC50 [1]: 500 µM
SEAP expression [1, 4]: significant decrease in SEAP expression
SEAP serum levels [2]: 0.21±0.03 U/L
modulation of the EthR-OethR interaction (EthR-OethR interaction): exclusively and specifically modulates the EthR-OethR interaction
E-ETR interaction (E-ETR interaction; 2-phenylethyl butyrate): insensitive
growth inhibition of M. bovis BCG in combination with ethionamide (M. bovis BCG; 0.5 and 2 mM with sub-inhibitory ethionamide 0.25 and 0.5 μg/ml): dose-dependently inhibited; also recorded: Synergistic effect
growth inhibitory effect alone, M. bovis BCG (M. bovis BCG; without ethionamide): does not show any growth inhibitory effect
growth inhibition of M. tuberculosis H37Rv in combination with ethionamide (M. tuberculosis H37Rv): dose-dependently inhibited; also recorded: Synergistic effect
growth inhibitory effect alone, M. tuberculosis H37Rv (M. tuberculosis H37Rv): does not show any growth inhibitory effect
inflammation at the injection site [3]: no inflammation at the injection site

CCC(=O)OCCCc1ccccc1 [3-Phenylpropyl propionate]
SEAP expression [1, 4]: significant decrease in SEAP expression

CC(=O)CCc1ccccc1 [4-Phenyl-2-butanone]
SEAP expression [1, 4]: significant decrease in SEAP expression
cytotoxicity (HEK-293): does not correlate with cytotoxicity

CC(=O)OCc1ccccc1 [Benzyl acetate]
SEAP expression [1, 4]: significant decrease in SEAP expression

CCCCCCCCCCCCCCCCOC(=O)CCCCCCC [Hexadecyl octanoate, reference compound]
SEAP expression ([1]; HEK-293 containing pWW489 and pWW491, 10 mM): fails to decrease SEAP expression

CC[C@H]1OC(=O)[C@H](C)[C@@H](O[C@H]2C[C@@](C)(OC)[C@@H](O)[C@H](C)O2)[C@H](C)[C@@H](O[C@@H]2O[C@H](C)C[C@H](N(C)C)[C@H]2O)[C@](C)(O)C[C@@H](C)C(=O)[C@H](C)[C@@H](O)[C@]1(C)O [erythromycin, reference compound]
E-ETR interaction (E-ETR interaction; 5 μg/ml): abolished
